Data on 24 molecules can be found in patent publication US20240174648A1, “Small Molecule Compound” (Technoderma Medicines Pte Ltd, priority 2019, published 2024).

One experiment deals with Tyk2 (Homo sapiens, UniProt P29597). Nature of the experiment: JAK kinase inhibition assay (EZ Reader, peptide substrate phosphorylation) - Tyk2. Format: biochemical. The note with it: Tyk2 kinase 1 nM; 8 concentration points, max 10 μM. From the text: (§1) Assay for Identifying Inhibitory Effects of Compounds on JAK Kinases
Sequence of Tyk2 (P29597 whole entry): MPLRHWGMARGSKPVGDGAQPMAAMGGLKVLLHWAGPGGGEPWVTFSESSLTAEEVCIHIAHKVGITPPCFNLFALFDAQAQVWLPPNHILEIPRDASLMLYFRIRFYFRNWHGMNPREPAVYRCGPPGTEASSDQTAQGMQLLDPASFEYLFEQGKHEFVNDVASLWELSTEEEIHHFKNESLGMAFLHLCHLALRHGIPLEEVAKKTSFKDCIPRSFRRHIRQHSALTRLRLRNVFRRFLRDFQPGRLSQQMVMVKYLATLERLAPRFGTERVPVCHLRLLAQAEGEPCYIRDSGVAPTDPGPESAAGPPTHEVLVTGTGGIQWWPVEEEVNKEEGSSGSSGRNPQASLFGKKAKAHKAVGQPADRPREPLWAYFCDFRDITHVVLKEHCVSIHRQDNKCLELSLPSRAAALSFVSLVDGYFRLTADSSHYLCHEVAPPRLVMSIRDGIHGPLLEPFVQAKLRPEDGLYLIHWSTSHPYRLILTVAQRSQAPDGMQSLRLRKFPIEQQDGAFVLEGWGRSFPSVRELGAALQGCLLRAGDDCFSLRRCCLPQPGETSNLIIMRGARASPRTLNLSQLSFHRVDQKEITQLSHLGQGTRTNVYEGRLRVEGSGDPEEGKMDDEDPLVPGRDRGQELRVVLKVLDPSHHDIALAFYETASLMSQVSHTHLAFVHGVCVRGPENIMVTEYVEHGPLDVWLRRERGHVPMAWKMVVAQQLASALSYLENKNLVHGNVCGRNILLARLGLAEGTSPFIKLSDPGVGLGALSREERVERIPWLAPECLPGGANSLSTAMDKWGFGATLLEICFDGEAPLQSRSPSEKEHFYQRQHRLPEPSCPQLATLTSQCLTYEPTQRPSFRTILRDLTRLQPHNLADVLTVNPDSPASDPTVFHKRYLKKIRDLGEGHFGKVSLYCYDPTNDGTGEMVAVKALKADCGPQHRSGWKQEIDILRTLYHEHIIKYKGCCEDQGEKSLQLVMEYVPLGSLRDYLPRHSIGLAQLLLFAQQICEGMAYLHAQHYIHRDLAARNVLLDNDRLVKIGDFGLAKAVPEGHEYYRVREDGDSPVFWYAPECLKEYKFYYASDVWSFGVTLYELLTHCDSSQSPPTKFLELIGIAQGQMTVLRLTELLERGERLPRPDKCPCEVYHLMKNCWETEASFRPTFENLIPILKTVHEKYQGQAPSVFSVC
(§2) Janus kinases (JAK), including JAK1, JAK2, JAK3 and Tyk2, transduce a cytokine-mediated signal through a JAK-STAT pathway. The kinases are 120-140 kDa in size and have 7 determined homology regions: JH1 to JH7. JH1 is an important region for enzymatic activity and has typical characteristics of tyrosine kinases. Phosphorylation of tyrosine leads to a change in the conformation of JAK protein, thereby promoting binding of substrate. The JAK-STAT system includes three main parts: receptors penetrating a cell membrane, Janus kinases binding to the receptors, and signal transducers and activators of transcription (STAT) for transmitting signals to a nucleus and DNA. When cytokines bind to receptors, JAK phosphorylates the receptors and attracts STAT proteins. The STAT proteins are also phosphorylated and combined with one another to form dimers. The dimers enter the nucleus and bind to DNA, thereby leading to gene transcription.
(§3) EZ Reader from PerkinElmer can be used to detect the phosphorylation of polypeptide substrates catalyzed by kinases. The device is based on microfluidic techniques, and can directly detect fluorescently labeled substrates and products. The separation step is achieved by controlling the pressure and electric field strength in the microfluidic chip. In kinase assays, a product conversion ratio is usually controlled to be 20-30%. A biological test is used to identify inhibitory effects of compounds on JAKs.
(§4) Compound powder was dissolved in DMSO, sealed and stored in a freezer under −20° C. The in-house compound Ref1 was used as a positive control for JAK1, JAK2 and Tyk2 tests, and Ref2 was used as a positive control for JAK3 tests.
(§5) S2.8. Assay buffer: 20 mM HEPES buffer, pH 7.4, 10 mM magnesium chloride, 0.01% bovine serum albumin BSA, 0.0005% Tween-20 and 1 mM dithiothreitol solution.
(§6) S2.9. Stop buffer: 180 mM HEPES buffer, 20 mM ethylenediaminetetraacetic acid and 0.2% coating reagent 3.
(§7) S2.10. Separation buffer: 100 mM HEPES buffer, 10 mM ethylenediaminetetraacetic acid, 0.0005% Tween 20, 0.1% coating reagent 3 and 1% dimethyl sulfoxide.
(§8) The compound was dissolved in dimethyl sulfoxide and diluted to 10 mM concentration, a certain volume of solution was taken and diluted to 0.6 mM concentration, 10 μL of the 0.6 mM dilution was added to a 384-well microplate, and then was diluted 3-fold with a total of 8 concentration points.
(§9) Positive control (HPE1): Ref1, final concentration: 10 μM […]
(§10) Negative control (ZPE): DMSO, final content: 1.6%
(§11) Compounds: maximum final concentration: 10 μM; 3-fold dilution, 8 concentration points and 2 duplicates.
(§12) S4.1. 250 nL of the compound was added to each well of the assay microplate by using ECHO, and centrifuged at 1000 rpm for 1 minute.
(§13) S4.2. 5 μL of the assay buffer was added and agitated for a few seconds to fully dissolve the compound.
(§14) S4.3. 5 μL of 3× substrate solution and 5 μL of 3× kinase solution were added and centrifuged at 800 rpm for 1 minute.
(§15) S4.4. Final concentrations of JAK1, JAK2, JAK3 and Tyk2 kinases in the reaction system were 20 nM, 1 nM, 1 nM and 1 nM respectively.
(§16) S4.5. Incubation at room temperature, where kinases had time differences, and different batches of kinases had time differences.
(§17) S4.6. When 20%-30% of the reaction completed, 15 μL of stop buffer was added to stop the reaction, and centrifuged at 1000 rpm for 2 minutes.
(§18) S4.7. The microplates were placed on EZ Reader for reading.
(§19) S4.8. Readings on EZ Reader were calculated by using a peak height, where product conversion ratio (%)=product/(product+substrate)*100.
(§20) 5. Data Processing: IC50 calculation
(§21) A graphing software Xlfit was used to form a concentration curve of the test compound, and an IC50 value was calculated.
(§22) “A” means “≥10 μM”; “B” means “≥1 μM and <10 μM”; “C” means “≥0.1 μM and <1 μM”; and “D” means “<0.1 μM”.

The next experiment has as its target JAK1 (Homo sapiens, UniProt P23458). The experiment can be described thus: JAK kinase inhibition assay (EZ Reader, peptide substrate phosphorylation) - JAK1. It is filed as biochemical. The note with it: JAK1 kinase 20 nM; 8 concentration points, max 10 μM.
From the text: as §1, §2, §3, §4, §5, §6, §7, §8, §9, §10, §11, §12, §13, §14, §15, §16, §17, §18, §19, §20, §21, §22

Sequence of JAK1 (P23458 whole entry): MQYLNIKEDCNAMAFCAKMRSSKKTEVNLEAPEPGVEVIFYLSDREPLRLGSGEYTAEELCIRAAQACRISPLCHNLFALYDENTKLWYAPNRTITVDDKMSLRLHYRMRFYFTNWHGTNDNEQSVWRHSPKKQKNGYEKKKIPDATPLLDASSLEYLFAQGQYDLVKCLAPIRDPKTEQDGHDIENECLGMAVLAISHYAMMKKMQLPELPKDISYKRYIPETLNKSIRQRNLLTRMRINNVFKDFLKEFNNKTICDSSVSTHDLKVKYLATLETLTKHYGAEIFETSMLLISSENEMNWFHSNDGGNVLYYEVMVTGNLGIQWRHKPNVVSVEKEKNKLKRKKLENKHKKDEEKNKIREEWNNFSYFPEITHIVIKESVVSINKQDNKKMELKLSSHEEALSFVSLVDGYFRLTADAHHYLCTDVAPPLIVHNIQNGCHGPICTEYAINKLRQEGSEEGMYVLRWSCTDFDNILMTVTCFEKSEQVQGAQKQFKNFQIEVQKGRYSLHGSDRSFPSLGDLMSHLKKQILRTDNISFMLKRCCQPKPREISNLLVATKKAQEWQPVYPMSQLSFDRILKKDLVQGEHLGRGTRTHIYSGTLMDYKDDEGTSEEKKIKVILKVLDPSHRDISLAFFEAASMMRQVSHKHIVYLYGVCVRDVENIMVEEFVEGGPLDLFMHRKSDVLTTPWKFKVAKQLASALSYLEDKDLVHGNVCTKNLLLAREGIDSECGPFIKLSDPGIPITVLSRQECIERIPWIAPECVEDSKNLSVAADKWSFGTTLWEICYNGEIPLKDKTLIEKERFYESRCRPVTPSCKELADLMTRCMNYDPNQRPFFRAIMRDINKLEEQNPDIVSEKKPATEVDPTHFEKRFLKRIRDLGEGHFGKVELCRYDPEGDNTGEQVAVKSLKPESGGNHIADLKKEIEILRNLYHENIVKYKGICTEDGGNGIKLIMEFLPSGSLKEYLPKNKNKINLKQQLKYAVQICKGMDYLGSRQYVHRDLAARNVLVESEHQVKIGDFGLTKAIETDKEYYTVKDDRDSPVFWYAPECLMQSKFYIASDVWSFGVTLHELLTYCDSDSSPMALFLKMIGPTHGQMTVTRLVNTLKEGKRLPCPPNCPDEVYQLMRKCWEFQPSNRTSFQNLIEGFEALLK

On to `Cn1cc(Nc2nccc(-c3ccnc(NC(=O)C4CC4)c3)n2)cn1` [TDM-180773, N-(4-(2-((1-methyl-1H-pyrazol-4-yl)amino)pyrimidin-4-yl)-pyridin-2-yl)cyclopropanemethane], for which the IC50 at Tyk2 and against JAK1 was not below 10 µM in each case.

For `Cn1cc(Nc2nccc(-c3ccnc(NC(=O)CC#N)c3)n2)cn1` [TDM-180774, 2-cyano-N-(4-(2-((1-methyl-1H-pyrazol-4-yl)amino)pyrimidin-4-yl)pyridin-2-yl)acetamide], the IC50 against Tyk2 and against JAK1 was not below 10 µM each time.

Regarding `COCC(=O)Nc1cc(-c2ccnc(Nc3cnn(C)c3)n2)ccn1` [TDM-180777, 2-methoxy-N-(4-(2-((1-methyl-1H-pyrazol-4-yl)amino)pyrimidin-4-yl)pyridin-2-yl)acetamide], the IC50 on Tyk2 and on JAK1 was not below 10 µM in each case.

Regarding `Cc1cc(-c2ccnc(Nc3cnn(C)c3)n2)ccc1C(=O)NCC#N` [TDM-180779, N-(cyanomethyl)-2-methyl-4-(2-((1-methyl-1H-pyrazol-4-yl)amino)pyrimidin-4-yl)benzamide], the IC50 against Tyk2 and against JAK1 was 1 to 10 µM throughout.

On to `Cn1cc(Nc2nccc(-c3ccc(C(=O)NC4CC4(F)F)nc3)n2)cn1` (centres unmarked) [TDM-180781, N-(2,2-difluorocyclopropyl)-5-(2-((1-methyl-1H-pyrazol-4-yl)amino)pyrimidin-4-yl)pyridinecarboxamide], for which the IC50 on Tyk2 and on JAK1 was 1 to 10 µM each time.

For `Cc1cc(-c2ccnc(Nc3cnn(C)c3)n2)ccc1-n1nccc1C1CC1` [TDM-180782, 4-(4-(5-cyclopropyl-1H-pyrazol-1-yl)-3-methylphenyl)-N-(1-methyl-1H-pyrazol-4-yl)pyrimidin-2-amine], the IC50 on Tyk2 was 1 to 10 µM; against JAK1 it was not below 10 µM.

`Cc1cc(-c2ccnc(Nc3cnn(C)c3)n2)ccc1NC(=O)CC(F)(F)F` [TDM-180783, 3,3,3-trifluoro-N-(2-methyl-4-(2-((1-methyl-1H-pyrazol-4-yl)amino)pyrimidin-4-yl)phenyl)propanamide]: the figures for the IC50 against Tyk2 and against JAK1 were 1 to 10 µM and 0.1 to 1 µM, respectively.

In turn, `Cc1cc(-c2ccnc(Nc3cnn(C)c3)n2)ccc1C(=O)NCC#N` [TDM-180784, N-(cyanomethyl)-2-methyl-4-(2-((1-methyl-1H-pyrazol-4-yl)amino)pyrimidin-4-yl)benzamide] returned an IC50 against JAK1 of 0.1 to 1 µM.

For the molecule `Cn1cc(Nc2nccc(-c3ccc(CN4CCOCC4)cc3)n2)cn1` [TDM-180787, N-(1-methyl-1H-pyrazol-4-yl)-4-(4-(morpholinomethyl)phenyl)pyrimidine-2-amine], the IC50 against Tyk2 and against JAK1 was 1 to 10 µM in each case.

Take `CN1CCN(Cc2ccc(-c3ccnc(Nc4cnn(C)c4)n3)cc2)CC1` [TDM-180788, N-(1-methyl-1H-pyrazol-4-yl)-4-(4-((4-methylpiperazine-1-yl)methyl)phenyl)pyrimidin-2-amine]: the IC50 on Tyk2 and at JAK1 was 1 to 10 µM in each case.

In the case of `CC(=O)N1CCN(Cc2ccc(-c3ccnc(Nc4cnn(C)c4)n3)cc2)CC1` [TDM-180789, 1-(4-(4-(2-((1-methyl-1H-pyrazol-4-yl)amino)pyrimidin-4-yl)benzyl)piperazin-1-yl)ethan-1-one], the IC50 against Tyk2 is 1 to 10 µM; against JAK1 it was not below 10 µM.

As to `Cn1cc(Nc2nccc(-c3ccnc(NC(=O)CC(F)(F)F)c3)n2)cn1` [TDM-180790, 3,3,3-trifluoro-N-(4-(2-((1-methyl-1H-pyrazol-4-yl)amino)pyrimidin-4-yl)pyridin-2-yl)propanamide], the IC50 against Tyk2 and on JAK1 was not below 10 µM each time.

As to `Cn1cc(Nc2nccc(-c3ccc(NC(=O)CO)cc3)n2)cn1` [TDM-180791, 2-hydroxy-N-(4-(2-((1-methyl-1H-pyrazol-4-yl)amino)pyrimidin-4-yl)phenyl)acetamide], the IC50 against Tyk2 lay within 1 to 10 µM; on JAK1, 0.1 to 1 µM.

Regarding `Cn1cc(Nc2nccc(-c3ccnc(NC(=O)C4CC4(F)F)c3)n2)cn1` (centres unmarked) [TDM-180792, 2,2-difluoro-N-(4-(2-((1-methyl-1H-pyrazol-4-yl)amino)pyrimidin-4-yl)pyridin-2-yl)cyclopropane-1-carboxamide], the IC50 against Tyk2 and against JAK1 was not below 10 µM in each case.

As for `COCCC(=O)Nc1ccc(-c2ccnc(Nc3cnn(C)c3)n2)cc1` [TDM-180799, 3-methoxy-N-(4-(2-((1-methyl-1H-pyrazol-4-yl)amino)pyrimidin-4-yl)phenyl)propanamide], the IC50 on Tyk2 is 1 to 10 µM; against JAK1, 0.1 to 1 µM.

For the molecule `Cn1cc(Nc2nccc(-c3ccc(NC(=O)CO)nc3)n2)cn1` [TDM-180806, 2-hydroxy-N-(5-(2-((1-methyl-1H-pyrazol-4-yl)amino)pyrimidin-4-yl)pyridin-2-yl)acetamide], the half-inhibitory concentration (IC50) at Tyk2 and against JAK1 was 1 to 10 µM each time.

As for `Cn1cc(Nc2nccc(-c3ccc(C(=O)NC4CC4)nc3)n2)cn1` [TDM-180826, N-cyclopropyl-5-(2-((1-methyl-1H-pyrazol-4-yl)amino)pyrimidin-4-yl)pyridinecarboxamide], the IC50 on Tyk2 and at JAK1 was 1 to 10 µM in each case.

Regarding `CCS(=O)(=O)Nc1ccc(-c2ccnc(Nc3cnn(C)c3)n2)cn1` [TDM-180829, N-(5-(2-((1-methyl-1H-pyrazol-4-yl)amino)pyrimidin-4-yl)pyridin-2-yl)ethanesulfonamide], the IC50 against Tyk2 and against JAK1 was 1 to 10 µM in each case.

As for `COCC(=O)Nc1ccc(-c2ccnc(Nc3cnn(C)c3)n2)cn1` [TDM-180831, 2-methoxy-N-(5-(2-((1-methyl-1H-pyrazol-4-yl)amino)pyrimidin-4-yl)pyridin-2-yl)acetamide], the IC50 against Tyk2 is not below 10 µM; on JAK1 it was 1 to 10 µM.

On to `Cn1cc(Nc2nccc(-c3ccc(C(=O)NC4CC4)cc3)n2)cn1` [TDM-180852, N-cyclopropyl-4-(2-((1-methyl-1H-pyrazol-4-yl)amino)pyrimidin-4-yl)benzamide], for which the IC50 at Tyk2 and on JAK1 was 1 to 10 µM in each case.

Consider `Cn1cc(Nc2nccc(-c3ccc(NC(=O)C4(C)CC4)nc3)n2)cn1` [TDM-180853, 1-methyl-N-(5-(2-((1-methyl-1H-pyrazol-4-yl)amino)pyrimidin-4-yl)pyridin-2-yl)cyclopropane-1-carboxamide], for which the IC50 on Tyk2 and against JAK1 was 1 to 10 µM throughout.

`Cn1cc(Nc2nccc(-c3ccc(NC(=O)CC#N)c4[nH]ccc34)n2)cn1` [TDM-180867, 2-cyano-N-(4-(2-((1-methyl-1H-pyrazol-4-yl)amino)pyrimidin-4-yl)-1H-indol-7-yl)acetamide]: the 50% inhibitory concentration (IC50) on Tyk2 and against JAK1 was 0.1 to 1 µM throughout.

For `Cn1cc(Nc2nccc(-c3ccc(NC(=O)C4CC4(F)F)c4[nH]ccc34)n2)cn1` (centres unmarked) [TDM-180868, 2,2-difluoro-N-(4-(2-((1-methyl-1H-pyrazol-4-yl)amino)pyrimidin-4-yl)-1H-indol-7-yl)cyclopropane-1-carboxamide], the IC50 at Tyk2 and against JAK1 was less than 0.1 µM in each case.

On to `Cn1cc(Nc2nccc(-c3ccc(NC(=O)C4CC4)c4[nH]ccc34)n2)cn1` [TDM-180869, N-(4-(2-((1-methyl-1H-pyrazol-4-yl)amino)pyrimidin-4-yl)-1H-indol-7-yl)cyclopropanecarboxamide], for which the IC50 against Tyk2 and against JAK1 was 0.1 to 1 µM each time.
